Experiments:
[1] = test system: KLH-induced DTH in Balb/C mice; assay: KLH-induced delayed-type hypersensitivity (DTH) mouse model, ear thickness; type: in vivo; conditions: 72 hours after KLH challenge, 4 consecutive daily dosing at 5 mg/kg i.p.
Experimental: The ability of Treg cells induced by IL-2 variants to suppress T cell antigen-driven inflammation in vivo was assessed in a model of delayed-type hypersensitivity (DTH). Female Balb/C mice (7-week old) were acclimated in house for 7 days and randomized into groups. Subcutaneous administration of vehicle (PBS), P-0511 at either 0.1 mg/kg or 0.3 mg/kg was initiated on day −2 and was given either once every 3 days (Q3D) for three injections or once every 5 days (Q5D) for two injections. Mice were then sensitized with a subcutaneous administration of 100 μg keyhole limpet hemocyanin (KLH) in 200 μl saline on day 0. For Q3D dosing, two more subcutaneous injections of PBS or P-0511 (0.1 or 0.3 mg/kg) were administered on days 1, and 4; for Q5D dosing, one additional s.c. injection of PBS, 0.1 or 0.3 mg/kg P-0511 was administered on day 3. Mice received an intradermal challenge of KLH (5 μg in 10 μl saline) in right ear on day 5. Right ear thickness was measured using a caliper on day 5 prior KLH challenge and daily from day 6 to day 9 corresponding to 24 h, 48 h, 72 h and 96 h post KLH challenge. One group of mice also received 5 mg/kg daily i.p. treatment of dexamethasone from day 5 to day 8 as a positive control.
Kinetics of the DTH response using the change in ear thickness relative to baseline values (Δ ear thickness) at various times after KLH challenge was illustrated in FIG. 23.

[2] = Aggregate content by size-exclusion chromatography after Protein A purification; type: physicochemical; conditions: Isoleucine-125 constructs; after MabSelectSure
Experimental: For affinity chromatography each supernatant was loaded on a HiTrap MabSelectSure column (CV=5 mL, GE Healthcare) equilibrated with 25 ml phosphate buffered saline, pH 7.2 (ThermoFisher). Unbound protein was removed by washing with 5 column volumes PBS, pH 7.2 and target protein was eluted with 25 mM sodium citrate, 25 mM sodium chloride, pH 3.2. Protein solution was neutralized by adding 3% of 1 M Tris pH 10.2. Ion exchange chromatography or mix-mode chromatography, including but not limited to CaptoMMC (GE Healthcare), ceramic hydroxyapatite, or ceramic fluoroapatite (Bio-Rad) was also utilized to polish the Protein A material as needed. Target protein was concentrated with an Amicon®Ultra-15 concentrator 10 KDa NMWC (Merck Millipore Ltd.)
The purity and molecular weight of the purified constructs were analyzed by SDS-PAGE with and in the absence of a reducing agent and staining with Coomassie (Imperial® Stain). The NuPAGE® Pre-Cast gel system (4-12% or 8-16% Bis-Tris, ThermoFisher) was used according to the manufacturer's instructions. The protein concentration of purified protein samples was determined by measuring the UV absorbance at 280 nm (Nanodrop Spectrophotometer, ThermoFisher) divided by the molar extinction coefficient calculated on the basis of the amino acid sequence. The aggregate content of the constructs was analyzed on an Agilent 1200 high-performance liquid chromatography (HPLC) system. Samples were injected onto an AdvanceBio size-exclusion column (300 Å, 4.6×150 mm, 2.7 μm, LC column, Agilent) using 150 mM sodium phosphate, pH 7.0 as the mobile phase at 25° C.
(§1) S125I substitution was thus introduced into a number of IL-2 variant Fc fusion molecules. The constructs harboring Ile-125 substitution in IL-2 were expressed using the same vector and in the same culturing conditions as their Ser-125 counterparts and purified using MabSelectSure. The expression level in mg/L and purity assessed by SEC chromatography in aggregation % of exemplary molecules are summarized in Table 6. The two molecules in the same row of Table 6 share the same other amino acid substitution(s) and differ only at residue 125 with either serine or isoleucine. As an example, the SEC chromatogram and SDS-PAGE pictures of P-0447 (SEQ ID NO: 173) and its Ile-125 counterpart P-0511 (SEQ ID NO: 213) were further illustrated in FIGS. 1D and 1E.

[3] = test system: CD4+ Treg vs CD4+ Tconv cells; assay: STAT5 phosphorylation, selectivity / activity profile Treg versus CD4+ Tconv cells, human PBMC; type: cell-based
From the text: (§2) Single amino acid substitutions were introduced to IL-2 at positions corresponding to amino acids interacting with receptor subunit(s) β or γ or βγ. These substitutions were aimed to reduce IL-2 signaling capacity through the intermediate affinity IL-2Rβγ complex and confer signaling specificity from the high affinity IL-2Rαβγ. IL-2 variants containing single amino acid substitutions were examined for their ability to differentially stimulate STAT5 phosphorylation in CD4 positive Treg and Tconv cells. STAT5 is known to be involved in the downstream signaling cascade upon IL-2 binding to the transmembrane IL-2 receptors. The phosphorylation of STAT5 in defined lymphocyte subpopulations was measured using fresh human peripheral blood mononuclear cells (PBMC) and the forkhead transcription factor FOXP3 was used to identify the Treg population in FACS analysis.
(§3) Briefly, human PBMC were isolated by Ficoll-Hypaque centrifugation from the buffy coat of a healthy donor. PBMC were starved in serum-free MACS buffer at 4° C. for 1 hour. 2×10^5 PBMC were then treated with serial dilutions of test compounds for 30 min at 37° C. Cells were fixed and permeabilized with Foxp3/Transcription Factor Staining Buffer Set (EBIO) by incubating with 1× Foxp3 fixation/permeabilization working solution for 30 minutes and washing with 1× permeabilization buffer. Cells were additionally fixed with Cytofix buffer and permeabilized with Perm Buffer III (BD Biosciences) and then washed. After blocking Fc receptors by adding human TruStain FcX (1:50 dilution), cells were stained with a mixture of anti-CD25-PE, anti-FOXP3-APC, anti-pSTAT5-FITC, and anti-CD4-PerCP-Cy5.5 antibodies at concentrations recommended by the manufacturer for 45 minutes at room temperature. Cells were collected by centrifugation, washed, resuspended in FACS buffer, and analyzed by flow cytometry. The flow cytometry data was gated into CD4+/Foxp3+/CD25^high and CD4+/Foxp3−/CD25^low groups for the Treg and CD4 conventional T cell subsets, respectively. Data are expressed as a percent of pStat5 positive cells in gated population.
The S125I substitution was then introduced into wild-type IL-2 or IL-2 variants that already harbored 1 or 2 mutations targeting receptor subunit(s) β or γ or βγ. The resulting IL-2 variants containing isoleucine at position 125 were tested for their ability to stimulate STAT5 phosphorylation in Treg and Tconv cells in comparison with their respective serine counterparts at position 125. Table 7 lists the potency and selectivity of IL-2 variants in Treg cells. The two molecules in the same row of Table 7 share the same other amino acid substitution(s) and differ only at position 125 with either serine or isoleucine.

Treg cells = assay: Treg pharmacodynamics in mice after repeated administration Q3D (Example 11); type: in vivo, mouse; conditions: after three consecutive Q3D treatments, 0.3 mg/kg s.c.
Experimental: Female Balb/C mice (7-week old) were acclimated in house for 5-7 days before the study. Vehicle (PBS), 0.3 mg/kg of P-0511, P-0512, P-0531, or Benchmark-1 compound were subcutaneously administered to mice (n=5/group) on days 0, 3, and 6. On days 3 and 9, three days after the first injection and multiple (3) injections, respectively, peripheral blood was collected. Based on earlier in vivo experiments, Treg cell activation, proliferation, and expansion were expected to peak on day 3, and thus three days post injection was selected for data collection and analysis. Changes in blood lymphocyte activation, proliferation, and expansion were measured by flow cytometry. P-0531 is the S125I equivalent of the wild type IL-2 fusion protein. The Benchmark-1 contains V91K mutation.

[4] = Transient expression level of IL-2 Fc fusion constructs in HEK-293F cells; conditions: Isoleucine-125 constructs
Experimental: The constructs were produced by co-transfecting HEK293-F cells growing in suspension with the mammalian expression vectors using polyethylenimine (PEI, 25,000 MW linear, Polysciences). If there were two or more expression vectors, the vectors were transfected in a 1:1 ratio. For transfection, HEK293 cells were cultivated in serum free FreeStyle™ 293 Expression Medium (ThermoFisher). For production in 1000 ml shaking flasks (working volume 330 mL), HEK293 cells were seeded at a density of 0.8×10^6 cells/ml 24 hours before transfection. A total of 330 μg of DNA expression vectors were mixed with 16.7 ml Opti-mem Medium (ThermoFisher). After addition of 0.33 mg PEI diluted in 16.7 ml Opti-mem Medium, the mixture was vortexed for 15 sec and subsequently incubated for 10 min at room temperature. The DNA/PEI solution was then added to the cells and incubated at 37° C. in an incubator with 8% CO2. Sodium butyrate (Millipore Sigma) was added to the cells at day 4 at a final concentration of […] to help sustain protein expression. After 6 days cultivation, supernatant was collected for purification by centrifugation for 20 min at 2200 rpm. The solution was sterile filtered (0.22 μm filter, Corning). The secreted protein was purified from cell culture supernatants using Protein A affinity chromatography.
as §1

[5] = test system: STAT5 phosphorylation in CD4+ Treg cells; assay: STAT5 phosphorylation in CD4+ Treg cells, human PBMC assay by FACS; type: cell-based
From the text: as §2, §3

Molecule: C[C@@H]1C[C@H]2[C@@H]3CCC4=CC(=O)C=C[C@]4(C)[C@@]3(F)[C@@H](O)C[C@]2(C)[C@@]1(O)C(=O)CO [dexamethasone, reference compound]
- inhibition of KLH-induced inflammatory response [1]: ~85%

Molecule: P-0531: IL-2 S125I Fc fusion, S125I equivalent of wild type, SEQ ID NO: 167
- Aggregation % (SEC) [2]: 0.7%
- activity profile / selectivity window Treg over CD4+ Tconv (in words) [3]: without altering Treg selectivity
- Treg Selectivity ([3]; Isoleucine-125 constructs): Yes
- % Treg over total CD4 T cells or over total lymphocytes (Treg cells): declined drastically to near control levels
- Expression [4]: 29.5 mg/L
- STAT5 phosphorylation activity in Treg cells (in words) [5]: slightly increased potency
